Test results from ChEMBL document CHEMBL1201862, “PubChem BioAssay data set” (2004).
Calls of active or inactive are those of the source.

How the values were obtained:
[1] = cytotoxicity in HEK-293T cells, dose response, cytotoxicity control for TCR NF-kB inhibitor project, luminescence, T-cell screen hits (AID 489026); type: functional, cell-based;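 further: cells exposed to compound about 14 hours before the viability readout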
Protein Wnt-3a = Protein Wnt-3a (Mus musculus, UniProt P27467); experiment: Wnt3a-driven reporter signaling inhibition, dose response, selectivity assay for Gli-SUFU antagonist project, Wnt-LIGHT cells, luminescence (AID 651570); type: functional; details: read-out: IC50_Mean;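 further: Wnt-LIGHT reporter cells stimulated with conditioned medium from Wnt3a-producing cells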
Chain of Protein Wnt-3a (P27467 whole entry): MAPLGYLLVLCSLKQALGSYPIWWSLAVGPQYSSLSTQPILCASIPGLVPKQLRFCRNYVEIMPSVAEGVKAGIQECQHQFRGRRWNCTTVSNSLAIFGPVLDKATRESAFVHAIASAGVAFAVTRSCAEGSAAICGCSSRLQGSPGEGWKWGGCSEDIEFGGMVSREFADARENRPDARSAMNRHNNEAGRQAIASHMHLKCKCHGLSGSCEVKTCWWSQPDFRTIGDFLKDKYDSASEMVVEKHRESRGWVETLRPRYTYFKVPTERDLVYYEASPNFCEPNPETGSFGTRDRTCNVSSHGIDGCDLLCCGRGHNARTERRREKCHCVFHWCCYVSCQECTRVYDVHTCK

INS1 = experiment: beta cell apoptosis inhibitors, cytokine rescue, dose response, luminescence, retest (AID 449756); type: functional, cell-based; details: Rattus norvegicus;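 further: cell death triggered by IL-1 beta plus TNF-alpha plus IFN-gamma mixture; protective hits raise ATP signal compared with cytokine alone wells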
Melanocortin receptor 4 = Melanocortin receptor 4 (Homo sapiens, UniProt P32245); type: functional, cell-based;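 further: Cell-based assay with luminescence read-out, confirmatory dose-response testing for agonist activity of biased ligands at MC4R; human U2OS cells with tagged receptor and beta-arrestin; potency of agonists that increase receptor coupling to beta-arrestin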
Chain of Melanocortin receptor 4 (P32245 whole entry): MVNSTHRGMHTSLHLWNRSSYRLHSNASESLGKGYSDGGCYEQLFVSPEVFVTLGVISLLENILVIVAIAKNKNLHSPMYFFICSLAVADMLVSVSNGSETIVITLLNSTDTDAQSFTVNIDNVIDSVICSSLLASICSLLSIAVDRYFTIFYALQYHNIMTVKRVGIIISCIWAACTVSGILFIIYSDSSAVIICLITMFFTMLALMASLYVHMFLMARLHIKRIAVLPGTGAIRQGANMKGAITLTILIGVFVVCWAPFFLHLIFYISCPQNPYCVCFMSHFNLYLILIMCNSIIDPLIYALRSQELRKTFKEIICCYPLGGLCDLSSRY

[2] = target: T1, Polyadenylate-binding protein 1 (Homo sapiens, UniProt P11940); experiment: PABP1 MLLE–PAM2 binding inhibitor potency, dose response, biochemical, fluorescence polarization, FITC-PAM2 peptide (AID 602259); type: functional; details: read-out: IC50_Mean
T1 sequence (P11940 whole entry): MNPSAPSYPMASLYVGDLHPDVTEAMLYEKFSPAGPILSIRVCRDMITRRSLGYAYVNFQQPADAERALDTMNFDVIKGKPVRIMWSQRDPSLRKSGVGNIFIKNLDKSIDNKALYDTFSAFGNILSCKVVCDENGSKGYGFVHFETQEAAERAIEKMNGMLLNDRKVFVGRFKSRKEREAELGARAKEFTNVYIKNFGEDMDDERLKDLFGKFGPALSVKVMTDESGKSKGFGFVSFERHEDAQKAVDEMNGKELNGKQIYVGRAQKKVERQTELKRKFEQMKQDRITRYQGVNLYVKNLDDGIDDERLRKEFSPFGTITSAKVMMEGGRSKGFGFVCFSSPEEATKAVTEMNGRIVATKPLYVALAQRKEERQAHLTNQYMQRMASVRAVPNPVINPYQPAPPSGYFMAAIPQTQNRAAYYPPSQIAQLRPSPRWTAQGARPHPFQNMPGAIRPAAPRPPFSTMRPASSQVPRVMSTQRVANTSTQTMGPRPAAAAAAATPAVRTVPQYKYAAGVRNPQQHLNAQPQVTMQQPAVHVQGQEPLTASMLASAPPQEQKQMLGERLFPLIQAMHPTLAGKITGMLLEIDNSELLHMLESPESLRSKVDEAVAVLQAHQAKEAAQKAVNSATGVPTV

[3] = target: T1, Polyadenylate-binding protein 1; experiment: PABP1 MLLE–PAM2 interaction inhibitors, dose response, miRNA deadenylation inhibitor project, biochemical, fluorescence polarization, Cy5-PAM2 peptide, secondary (AID 602260); type: functional; details: read-out: IC50_Mean
[4] = target: Adenosylmethionine-8-amino-7-oxononanoate aminotransferase (Mycobacterium tuberculosis, UniProt P9WQ81); experiment: Mycobacterium tuberculosis BioA enzyme inhibitor Measured in Biochemical System Using Plate Reader - 2163-02_Inhibitor_Dose_CherryPick_Activity.; type: functional, Mycobacterium tuberculosis UT205
Chain of Adenosylmethionine-8-amino-7-oxononanoate aminotransferase (P9WQ81 whole entry): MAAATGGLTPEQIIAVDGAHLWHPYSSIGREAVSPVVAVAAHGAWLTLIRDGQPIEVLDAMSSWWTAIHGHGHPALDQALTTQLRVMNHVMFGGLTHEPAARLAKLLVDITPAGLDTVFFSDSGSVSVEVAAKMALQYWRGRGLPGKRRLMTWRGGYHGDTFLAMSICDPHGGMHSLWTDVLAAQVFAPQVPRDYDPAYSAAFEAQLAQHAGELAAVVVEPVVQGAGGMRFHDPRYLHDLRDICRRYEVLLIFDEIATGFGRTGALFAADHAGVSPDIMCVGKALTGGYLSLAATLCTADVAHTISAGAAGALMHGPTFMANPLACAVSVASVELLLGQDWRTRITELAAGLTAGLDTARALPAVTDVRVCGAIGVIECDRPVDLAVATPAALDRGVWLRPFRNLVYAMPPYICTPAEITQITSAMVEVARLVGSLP

[5] = control 3'UTR Renilla luciferase suppression, dose response, counter-screen for Shn3 inhibitor project, cell-based, Clone20-Shn3RL, cherry-picked (AID 624133); type: functional
[6] = HepG2 cell cytotoxicity, dose response, cytotoxicity control for Shn3 inhibitor project, CellTiter-Glo, cherry-picked (AID 624134); type: functional, cell-based
[7] = Shn3 3'UTR reporter inhibitors, dose response, cell-based, Clone20 osteoblasts, firefly luciferase, cherry-picked (AID 624132); type: functional;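 further: firefly luciferase luminescence from reporter carrying the Shn3 3'UTR in osteoblasts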
[8] = C. albicans growth with fluconazole, confirmation, fluorescence, retest (AID 2467); type: functional, cell-based
[9] = target: Dual specificity tyrosine-phosphorylation-regulated kinase 1A (Rattus norvegicus, UniProt Q63470); type: biochemical, Homo sapiens
[10] = target: T2, Short transient receptor potential channel 4 (Mus musculus, UniProt Q9QUQ5); experiment: mouse TRPC4 channel inhibitors, dose response, cell-based, HEK293 TRPC4/mu-opioid, Fluo-4 calcium (AID 434942); type: functional;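 further: potency of inhibitors blocking the TRPC4 calcium response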
T2 sequence (Q9QUQ5 whole entry): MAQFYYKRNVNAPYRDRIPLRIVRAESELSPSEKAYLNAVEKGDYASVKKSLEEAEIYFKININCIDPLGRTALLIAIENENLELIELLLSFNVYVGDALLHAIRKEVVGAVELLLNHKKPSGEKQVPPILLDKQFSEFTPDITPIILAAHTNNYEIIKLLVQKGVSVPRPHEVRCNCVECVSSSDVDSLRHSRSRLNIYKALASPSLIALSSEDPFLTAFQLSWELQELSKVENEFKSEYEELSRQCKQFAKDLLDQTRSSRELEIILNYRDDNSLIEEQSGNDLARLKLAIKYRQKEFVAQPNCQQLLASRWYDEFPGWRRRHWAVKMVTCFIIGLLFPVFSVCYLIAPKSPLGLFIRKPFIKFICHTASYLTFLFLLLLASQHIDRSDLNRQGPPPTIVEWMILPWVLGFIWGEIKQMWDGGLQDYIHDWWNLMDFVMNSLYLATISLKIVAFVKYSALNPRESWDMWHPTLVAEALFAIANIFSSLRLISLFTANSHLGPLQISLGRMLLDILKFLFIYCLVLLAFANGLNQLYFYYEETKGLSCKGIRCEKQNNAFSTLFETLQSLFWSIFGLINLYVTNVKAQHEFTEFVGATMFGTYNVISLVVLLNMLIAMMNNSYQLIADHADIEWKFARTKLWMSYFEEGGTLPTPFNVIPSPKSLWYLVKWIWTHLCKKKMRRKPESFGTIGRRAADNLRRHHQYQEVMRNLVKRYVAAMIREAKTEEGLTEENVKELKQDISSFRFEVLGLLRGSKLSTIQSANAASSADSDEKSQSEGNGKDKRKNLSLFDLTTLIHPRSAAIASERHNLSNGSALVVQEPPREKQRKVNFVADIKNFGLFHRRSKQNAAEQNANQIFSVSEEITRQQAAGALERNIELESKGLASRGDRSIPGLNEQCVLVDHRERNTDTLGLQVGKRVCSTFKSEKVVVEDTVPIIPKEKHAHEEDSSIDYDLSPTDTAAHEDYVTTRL

Aminopeptidase N = target: T3, Aminopeptidase N (Plasmodium falciparum FcB1/Columbia, UniProt O96935); experiment: P. falciparum M1AAP inhibitors, biochemical, fluorogenic H-Leu-NHMec substrate, 1536-well (AID 1445); design: species or system Plasmodium falciparum 3D7, 3D7
T3 sequence (O96935 whole entry): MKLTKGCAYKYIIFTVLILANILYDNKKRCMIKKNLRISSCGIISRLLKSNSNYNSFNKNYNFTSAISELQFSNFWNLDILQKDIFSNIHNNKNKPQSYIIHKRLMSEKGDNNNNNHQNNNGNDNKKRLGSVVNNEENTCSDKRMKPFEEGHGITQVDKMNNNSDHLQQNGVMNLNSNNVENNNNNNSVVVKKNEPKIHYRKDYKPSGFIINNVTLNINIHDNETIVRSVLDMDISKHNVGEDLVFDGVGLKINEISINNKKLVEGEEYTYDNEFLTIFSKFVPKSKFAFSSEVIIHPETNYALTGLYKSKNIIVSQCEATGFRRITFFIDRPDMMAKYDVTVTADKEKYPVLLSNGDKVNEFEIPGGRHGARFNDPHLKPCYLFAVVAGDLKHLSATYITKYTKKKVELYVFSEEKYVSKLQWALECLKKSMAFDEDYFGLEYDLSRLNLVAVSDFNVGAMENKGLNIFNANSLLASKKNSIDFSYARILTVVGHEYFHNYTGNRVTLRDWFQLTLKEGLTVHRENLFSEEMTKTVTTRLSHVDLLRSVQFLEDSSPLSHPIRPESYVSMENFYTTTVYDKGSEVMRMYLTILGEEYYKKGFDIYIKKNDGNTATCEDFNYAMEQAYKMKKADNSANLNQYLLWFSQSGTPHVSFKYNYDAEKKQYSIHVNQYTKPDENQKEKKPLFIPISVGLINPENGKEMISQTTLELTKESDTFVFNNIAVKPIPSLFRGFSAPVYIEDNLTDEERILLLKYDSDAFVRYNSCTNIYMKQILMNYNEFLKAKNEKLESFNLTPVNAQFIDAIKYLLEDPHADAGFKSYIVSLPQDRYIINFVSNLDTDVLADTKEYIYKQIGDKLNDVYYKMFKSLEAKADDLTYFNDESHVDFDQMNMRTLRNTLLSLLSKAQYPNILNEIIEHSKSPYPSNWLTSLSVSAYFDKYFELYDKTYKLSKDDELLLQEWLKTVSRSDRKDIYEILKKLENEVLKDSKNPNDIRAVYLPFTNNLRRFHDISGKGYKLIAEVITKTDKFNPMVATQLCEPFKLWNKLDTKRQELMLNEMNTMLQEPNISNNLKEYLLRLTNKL

[11] = NIH-3T3 fibroblast cytotoxicity, dose response, cytotoxicity control, cell-based, fluorescence, Alamar Blue, secondary assay (AID 2327); type: functional;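 further: NIH-3T3 mouse fibroblasts cultured with fluconazole at 8 µg/mL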
[12] = target: T4, High affinity choline transporter 1 (Homo sapiens, UniProt Q9GZV3); experiment: CHT inhibitors, dose response, cell-based, 10-point CRC, membrane potential dye (AID 588401); type: functional;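 further: membrane potential dye fluorescence of choline-evoked depolarization via CHT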
T4 sequence (Q9GZV3 whole entry): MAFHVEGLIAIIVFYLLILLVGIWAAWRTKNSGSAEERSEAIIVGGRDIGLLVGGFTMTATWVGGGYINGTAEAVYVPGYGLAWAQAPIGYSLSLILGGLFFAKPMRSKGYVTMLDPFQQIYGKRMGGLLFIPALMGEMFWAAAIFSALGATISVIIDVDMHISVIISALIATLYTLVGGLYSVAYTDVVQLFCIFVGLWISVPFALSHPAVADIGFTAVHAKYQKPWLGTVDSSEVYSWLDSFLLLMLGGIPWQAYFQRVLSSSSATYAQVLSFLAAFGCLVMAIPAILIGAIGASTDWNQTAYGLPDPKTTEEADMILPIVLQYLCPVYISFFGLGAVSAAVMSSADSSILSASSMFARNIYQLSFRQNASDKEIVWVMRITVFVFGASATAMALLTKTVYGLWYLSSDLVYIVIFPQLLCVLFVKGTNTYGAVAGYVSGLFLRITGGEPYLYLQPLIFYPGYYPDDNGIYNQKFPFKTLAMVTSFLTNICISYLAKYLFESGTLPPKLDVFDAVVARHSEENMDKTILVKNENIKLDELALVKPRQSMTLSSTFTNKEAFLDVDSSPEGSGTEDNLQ

[13] = target: T4, High affinity choline transporter 1; experiment: CHT inhibitors, dose response, cell-based, 5-point CRC, membrane potential dye (AID 504840); type: functional

CC(=O)c1c(C)[nH]c(C(=O)OCC(=O)Nc2ccc(C)cc2[N+](=O)[O-])c1C
IC50 [1]: > 80 µM (inactive)
IC50 (Protein Wnt-3a): 0.245 µM (active)
AC50 (INS1): 1.12 µM (active)

CC(=O)Nc1cc(-c2ccccc2N(C)C)cn2c(-c3ccc(F)c(Cl)c3)cnc12
EC50 (Melanocortin receptor 4): > 89.2 µM (inactive)
IC50 [2]: > 66 µM (inactive)
IC50 [3]: > 66 µM (inactive)

O=C1CCCc2c1cc(C(=O)NCc1ccco1)c(=O)n2-c1ccc(Cl)cc1
AC50 [4]: 3.08 µM (active)

CC(Sc1nc2ccccc2c(=O)n1C)C(=O)NC1CCCCC1C (centres undefined)
AC50 [5]: 3.78 µM (active)
AC50 [6]: 26.2 µM (active)
IC50 (Protein Wnt-3a): 4.15 µM (active)
AC50 [7]: 3.46 µM (active)

N#C/C(=N\Nc1cccc([N+](=O)[O-])c1)C(=O)c1ccc(Br)cc1
EC50 [8]: 4.48 µM (active)
AC50 [9]: 2.91 µM (active)
EC50 [10]: 3.35 µM (active)
IC50 (Aminopeptidase N): 40.5 µM (active)
EC50 [11]: 56.9 µM (active)
AC50 (INS1): 6.82 µM (active)
IC50 [12]: 3.36 µM (active)
IC50 [13]: 9.02 µM (active)
